Assay results: US11945875B2, “Motile sperm domain containing protein 2 and cancer” (ImmuneWalk Therapeutics, Inc., priority 2015, dated 2024)
“Also recorded” adds a separate entry of the source.

Tests used:
human monocytes = conditions: cited from earlier work
MOSPD2 [1] = biological target: T1, MOSPD2 (Homo sapiens, UniProt Q8NHP6); experiment: Binding to HEK293 cells transfected with HA-tagged human MOSPD2; parameters: expressed in transfected cells; host or cells: HEK293; conditions: ovalbumin labeled compound
T1 sequence (Q8NHP6 1-518): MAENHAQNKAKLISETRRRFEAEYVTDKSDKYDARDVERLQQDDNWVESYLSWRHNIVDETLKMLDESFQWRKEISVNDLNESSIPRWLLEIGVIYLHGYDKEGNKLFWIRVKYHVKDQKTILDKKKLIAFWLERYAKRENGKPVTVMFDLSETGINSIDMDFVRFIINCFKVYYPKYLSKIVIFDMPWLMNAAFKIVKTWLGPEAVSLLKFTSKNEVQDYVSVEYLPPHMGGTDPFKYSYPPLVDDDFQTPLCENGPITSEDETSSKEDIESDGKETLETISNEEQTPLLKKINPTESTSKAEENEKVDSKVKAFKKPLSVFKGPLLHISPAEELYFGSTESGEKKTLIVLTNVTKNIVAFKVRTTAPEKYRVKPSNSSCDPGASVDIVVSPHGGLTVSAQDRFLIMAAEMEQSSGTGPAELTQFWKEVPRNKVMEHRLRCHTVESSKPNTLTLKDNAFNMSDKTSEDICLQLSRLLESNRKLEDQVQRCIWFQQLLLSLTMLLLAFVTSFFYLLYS
Source text: VB-201 inhibits human monocyte chemotaxis in vitro and signaling pathways activated downstream of chemokine receptors.

MOSPD2 [2] = biological target: T1, MOSPD2; experiment: Mass-Spectrometry differential display of proteins precipitated from human monocytes; assay type: binding; parameters: endogenous in cells; host or cells: human CD14 monocytes; conditions: labeled compound
Source text: Using labeled VB-201 and VB-221, proteins from human monocytes were precipitated and differential display by Mass-Spectrometry, was studied.

MOSPD2 [3] = biological target: T1, MOSPD2; experiment: Precipitation of proteins from human CD14 monocyte lysate with labelled VB-201 or VB-221, Western blot; assay type: binding; parameters: endogenous in cells; host or cells: human CD14 monocytes; conditions: ovalbumin-biotin labelled compound (OB201/OB221)
Description: (§1) VB-201 and VB-221 were labeled with biotin as follows. VB-201, VB-221 and ovalbumin (OVA, Sigma, Israel) were dissolved in 0.1 M MES buffer (Thermo Scientific, Rockford, IL) and conjugated using EDC [1-ethyl-3-(dimethylaminopropyl) carbodiimide HCL] (Thermo Scientific) at a molar ratio of 100 (VB-201/VB-221):1 (OVA):240 (EDC) for 2-3 hr at room temperature. After which, samples were transferred to 10 kDa dialysis cassettes (Thermo Scientific) and dialyzed overnight against PBS. The ovalbumin bound VB-201 (OB201) and VB-221 (OB221) were then conjugated with amine-PEG2-biotin (in 0.1 M MES buffer) using EDC at a molar ratio of 1 (OB201/OB221):100 (amine-PEG2-biotin):700 (EDC). The reaction was allowed to proceed for 2-3 hours at room temperature after which samples were again transferred to a 10 kDa dialysis cassette and dialyzed overnight against PBS.
(§2) Cells were lysed using a 1% NP-40 lysis buffer containing 1:100 protease and phosphatase inhibitors, followed by 20 min incubation on ice and 15 min centrifugation at maximum speed. Samples were incubated overnight at 4° C. with solvent, OB201 or OB221 in a rotator. Streptavidin agarose beads (Sigma, Israel) were added for 2 hours. Protein elution was performed with lysis buffer without DTT for 10 min at room temperature. Sample loading, transfer and immuno-blotting were performed as described above. […]

[4] = system: EGF induced phosphorylation of AKT; experiment: EGF-induced phosphorylation of AKT in MDA-231 cells, Western blot; assay type: cell-based, human; conditions: 20 min pre-incubation, EGF 200 ng/ml 10 min
Description: In vitro: To test the effect of VB-201 on epidermal growth factor (EGF)-induced phosphorylation, MDA-231 breast cancer cells (10^6) were starved for 3 hours in 0.5% FCS medium, followed by incubation with various concentrations of VB-201 (1 μg/ml, 5 μg/ml, and 10 μg/ml) or a solvent control for 20 minutes. The MDA-231 cells were then activated with EGF (200 ng/ml) for 10 min. Phosphorylation of AKT was then analyzed by Western Blot. HSP90 was used for a loading control.

TLR2 = biological target: T2, TLR2 (Homo sapiens, UniProt O60603); experiment: Precipitation of proteins from human CD14 monocyte lysate with labelled VB-201 or VB-221, Western blot; assay type: binding; conditions: ovalbumin-biotin labelled compound (OB201/OB221)
T2 construct: endogenous in cells; host or cells: human CD14 monocytes
Description: as §1, §2

T2 sequence (O60603 21-784): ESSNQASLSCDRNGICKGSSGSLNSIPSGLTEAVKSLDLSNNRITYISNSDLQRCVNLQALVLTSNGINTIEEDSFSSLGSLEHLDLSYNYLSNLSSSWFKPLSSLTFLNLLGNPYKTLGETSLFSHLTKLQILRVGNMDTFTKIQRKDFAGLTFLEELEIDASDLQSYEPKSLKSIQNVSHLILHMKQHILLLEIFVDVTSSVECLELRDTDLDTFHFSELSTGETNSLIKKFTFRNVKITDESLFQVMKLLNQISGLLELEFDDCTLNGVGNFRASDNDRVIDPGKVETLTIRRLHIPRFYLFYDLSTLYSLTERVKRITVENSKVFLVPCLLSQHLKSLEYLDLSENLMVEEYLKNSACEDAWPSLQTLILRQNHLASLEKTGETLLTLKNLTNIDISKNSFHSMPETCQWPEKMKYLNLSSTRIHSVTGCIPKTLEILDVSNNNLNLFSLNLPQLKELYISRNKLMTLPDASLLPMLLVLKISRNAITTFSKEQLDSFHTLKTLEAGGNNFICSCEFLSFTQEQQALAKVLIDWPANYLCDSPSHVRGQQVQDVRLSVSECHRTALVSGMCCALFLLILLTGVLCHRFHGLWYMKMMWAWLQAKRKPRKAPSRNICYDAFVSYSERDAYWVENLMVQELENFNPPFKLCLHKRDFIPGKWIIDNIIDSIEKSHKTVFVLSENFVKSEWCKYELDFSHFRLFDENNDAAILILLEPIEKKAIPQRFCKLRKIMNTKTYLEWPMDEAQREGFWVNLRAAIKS

SMILES	inhibition of monocyte chemotaxis / chemokine-induced signaling and migration (human monocytes)	binding to HA-positive HEK293 cells expressing human MOSPD2 (MOSPD2 [1])	binding of MOSPD2 by Mass-Spectrometry (MOSPD2 [2])	binding / precipitation of MOSPD2 (MOSPD2 [3])	inhibition of EGF induced phosphorylation of AKT ([4]; 5 μg/ml)	inhibition of EGF induced phosphorylation of AKT ([4]; 10 μg/ml)	precipitation of TLR2 (TLR2)
CCCCCCCCCCCCCCCCOC[C@H](COP(=O)([O-])OCC[N+](C)(C)C)OCCCCC(=O)O [VB-201, 1-hexadecyl-2-(4′-carboxy)butyl-glycero-3-phosphocholine]	inhibits migration	strong binding	strong binding	binds and precipitates MOSPD2; also recorded: markedly more intense than VB-221; also recorded: binds to MOSPD2	significant inhibition	nearly completely inhibits	comparable intensity
CCCCCCCCCCC(CCCCCCCC)COCC(COP(=O)([O-])OCC[N+](C)(C)C)OCCCCC(=O)O (stereo not drawn) [VB-221, 1-(2′-octyl)dodecyl-2-(4′-carboxy)butyl-glycero-3-phosphocholine]	does not inhibit; also recorded: did not inhibit						comparable intensity
